# Reference: patent US7892764B2, “System for seizure suppression” (priority 2006, dated 2011)
# Legend:
# Format in all cases: cell-based
# [1] = target: T1, ASIC current (Mus musculus, UniProt Q6NXK8); test: Acid-induced (pH 6.0) ASIC current in mouse cortical neurons, patch-clamp recording; details: read-out: IC50 (concentration at 50% inhibition) of ASIC current amplitude; pH drop 7.4 to 6.0, holding potential −60 mV
# T1 sequence (Q6NXK8 1-526): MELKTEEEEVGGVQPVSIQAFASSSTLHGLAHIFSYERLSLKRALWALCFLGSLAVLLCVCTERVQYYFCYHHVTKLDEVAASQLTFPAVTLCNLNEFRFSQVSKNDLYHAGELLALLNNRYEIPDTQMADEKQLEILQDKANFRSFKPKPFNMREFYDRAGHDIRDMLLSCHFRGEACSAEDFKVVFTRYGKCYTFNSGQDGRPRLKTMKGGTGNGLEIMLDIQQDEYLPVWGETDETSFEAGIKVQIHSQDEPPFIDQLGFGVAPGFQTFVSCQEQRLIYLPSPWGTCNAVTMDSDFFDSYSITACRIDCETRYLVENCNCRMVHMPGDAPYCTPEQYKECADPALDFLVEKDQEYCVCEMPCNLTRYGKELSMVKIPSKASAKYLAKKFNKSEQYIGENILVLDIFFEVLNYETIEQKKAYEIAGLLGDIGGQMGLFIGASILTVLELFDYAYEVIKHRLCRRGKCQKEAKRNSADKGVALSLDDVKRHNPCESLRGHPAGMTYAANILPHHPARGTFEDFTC
# Description: Mouse cortical neurons in culture were monitored electrophysiologically by patch-clamp recording of current at a holding potential of −60 mV. An ASIC current was induced at this holding potential by dropping the extracellular pH from physiological pH (pH 7.4) to pH 6.0, in the presence of different concentrations of benzamil (FIG. 11) or EIPA (FIG. 12). The current traces obtained are presented in the upper part of FIGS. 11 and 12. […] Therefore, amiloride derivatives inhibit ASIC channel activity and may be used for seizure suppression in subjects prone to seizures and/or having a seizure.
# [2] = test system: ASIC current; test: Effect of antiepileptic agents on ASIC current activated by pH drop from 7.4 to 6.0 in isolated neurons
# Description: Activation of ASICs may be involved in increased neuronal excitability and thus seizure generation. Inhibition of ASICs, on the other hand, is expected to be antiepileptic. To test this hypothesis further, we performed a study to examine the effect of currently available antiepileptic agents—particularly those agents for which the mechanism of action is not fully understood—on ASIC currents. We suspected that some of the current antiepileptic agents may, in fact, exert their antiepileptic effect partially through their inhibition of an ASIC current. Three commonly used antiepileptic agents were tested on an ASIC current activated by a pH drop from 7.4 to 6.0. […] Perfusion of lamotrigine (1 mM), however, inhibited the current by 43±13% (n=3, p<0.05, FIG. 15B), whereas perfusion of 1 mM felbamate reduced the amplitude of the ASIC current by nearly 60% (n=3. FIG. 15C).
# [3] = test system: mouse hippocampal slices; test: Low Mg2+-induced epileptiform bursting activity (evoked and spontaneous) in hippocampal slices; details: 200 ng/mL PcTX1 venom or 20 nM synthetic PcTX1, absence of Mg2+
# Protocol: Limbic seizures (Avoli et al., 2002) are modeled by removing Mg^2+ from artificial cerebral spinal fluid (aCSF) in slices of hippocampal-entorhinal cortex, which triggers interictal-like bursting activity, or spontaneous ictal-like events (Wong et al., 2001; Anderson et al., 1986). In the presence of normal Mg^2+ (1.5 mM), stimulation of Schaffer collaterals induces single population spike or EPSP in the CA1 region of the hippocampus. […] Perfusion with Mg^2+-free aCSF for about 30 min evoked synchronous burst firing with the same stimulation intensity. In about, 30% of the slices, spontaneous clustered bursts developed in the absence of electrical stimulation. Bath perfusion of amiloride or PcTX1 for 10 min reduced the amplitude and frequency of evoked bursting activity (FIGS. 5A and 5B). Amiloride (100 μM) reduced the amplitude of the first and the second population spikes (from 1.2±0.2 mV to 0.5±0.2 mV and 0.6±0.03 mV to 0.2±0.05 mV, respectively (n=9: p<0.01, FIGS. 5A and 5B), and the number of population spikes (from 4.7±0.6 to 3.3±0.8, n=9, p<0.05)). Similarly, PcTX1 (200 ng/mL) attenuated the amplitude of the population spike (from 2.1±0.3 to 1.6±0.2 mV, n=9, p<0.05) and the number of spikes (from 4.2±0.6 to 3.0±0.6, p<0.05).
# Preparation of hippocampal slices and brain slice recording. Hippocampal slices were obtained from 8- to 10-week-old mice. The protocol for brain-slice recording was approved by the Institutional Animal Care and Use Committee of Legacy Research. Animals were deeply anesthetized with isoflurane and decapitated. Brains were quickly removed and placed in ice-cold solution that contained: 125 mM sucrose, 2.5 mM KCl, 26 mM NaHCO3, 1.25 mM NaHPO4, 6.0 mM […], 0.5 mM CaCl2, and 10 mM glucose, and was saturated with 95% O2 and 5% CO2 (pH 7.4). Hippocamnpal slices were cut in 400 μm thickness in transverse plane with a vibratome (Leica VT 1000S) and placed in a slice holding chamber (BSC-PC Prechamber, Warner Instrument) and incubated in normal artificial cerebral spinal fluid (aCSF) that contained: 125 mM NaCl, 2.5 mM KCl, 26 mM NaHCO3, 1.25 mM […], 1.0 mM MgSO4, 2.0 mM CaCl2, and 10 mM glucose, and was saturated with 95% O2 and 5% CO2 (pH 7.4).
# Following ˜60 min of incubation at room temperature, individual slices were transferred to a submerged slice chamber with a volume of 0.5 mL (Warner Instruments, Hamden, Conn.) and perfused with oxygenated aCSF (35° C.) at a rate of 3-4 mL/min. Recording electrodes were pulled from borosilicate glass and filled with aCSF. The population spike and the field excitatory postsynaptic potentials (fEPSP) were recorded in stratum pyramidale and striatum radiatum of hippocampal CA1 region, by stimulating Schaffer Collaterals.
# For low Mg^2+ induced epileptic burst activity, Mg^2+-free aCSF was perfused to the slices for ˜30 min. For stimulus-train induced bursting discharges (STIB), each stimulation train consisted of 120 pulses at 60 Hz and each pulse was 100 μsec in duration (Stasheff et al., 1985). A 10-minute interval of non-stimulation was provided between successive trains of high frequency stimulation. Stimulation electrodes were located in striatum radiatum between CA1 and CA3 region. The population spikes were recorded from striatum pyramidale of the CA3 region.
# Pharmacological and electrical bursting models. To induce epileptic burst discharges, Mg^2+-free aCSF was applied. Mg^2+-free aCSF was obtained by simply omitting MgSO4 from aCSF.
# [4] = target: T2, ASICs (Mus musculus, UniProt Q6NXK8); test: Acid (pH 7.0/7.1)-induced membrane depolarization and neuronal firing, current-clamp recording; details: pH 7.0; amiloride 100 μM or synthetic PcTX1 20 nM
# T2 construct: Primary neuronal cultures were prepared from embryonic Swiss mice at 15 to 16 days of gestation; endogenous in cells
# T2 sequence (Q6NXK8 1-526): T1 sequence (Q6NXK8 1-526)
# Description: Unlike ischemia, only moderate pH changes (e.g., ˜0.3 pH unit) are reported in brain parenchyma during seizures (Chesler et al., 1988: Chesler et al., 1992), although pH in the synaptic cleft may be much lower (Chesler et al., 1992; Wemmie et al., 2006). […] One possibility is that voltage-clamp recording has relatively low sensitivity to resolve small current in whole-cell configuration. To provide more evidence that the decreases of pHo to the level seen in epilepsy can indeed activate the ASICs and cause neuronal excitation, we have also used current-clamp recording to study changes of membrane depolarization and neuronal firing by small changes of pHo. Due to the large input resistance of most CNS neurons (e.g., ˜500 MΩ), even a small membrane current (e.g., 10-20 pA, which is difficult to resolve in voltage-clamp recording in general) can induce significant membrane depolarization in current-clamp conditions. Mouse cortical neurons were used for current-clamp recordings 14 days after the culture.
# Cortical neuronal culture. Primary neuronal cultures were prepared from embryonic Swiss mice at 15 to 16 days of gestation according to our previously described techniques (Xiong et al., 2004). In brief, cerebral cortices from 10 to 12 embryos were dissected and incubated with 0.05% trypsin-EDTA for 10 min, dissociated by trituration with a fire-polished glass pipette, and plated on poly-L-ornithine-coated culture dishes at a density of 0.5×10^6 cells per dish. Neurons were cultured with Neurobasal medium supplemented with B27 (Invitrogen). The cultures were maintained at 37° C. in a humidified 5% CO2 atmosphere incubator and were used for experiments after 12-14 days.
# Patch clamp techniques. Whole-cell voltage-clamp and current-clamp recordings were performed as described in our previous studies (Xiong et al., 2004). […] Whole-cell currents were recorded using Axopatch 200B amplifiers with pCLAMP software (Axon Instruments, CA, USA). […]
compound,measurement,setting,value
"CCN(c1nc(N)c(C(=O)N=C(N)N)nc1Cl)C(C)C [EIPA, 5-(N-ethyl-N-isopropyl)-amiloride]",IC50,[1],~20 µM
Nc1nnc(-c2cccc(Cl)c2Cl)c(N)n1 [lamotrigine],effect on desensitization of the ASIC current,[2],enhances the desensitization
same,inhibition of ASIC current amplitude,"[2]; 1 mM, pH drop from 7.4 to 6.0",43±13%
CCC1(C)CC(=O)NC1=O (stereo not shown) [ethosuximide],effect on amplitude of the ASIC current,"[2]; 1 mM, bath application 5 min, pH drop from 7.4 to 6.0",did not affect
NC(=O)OCC(COC(N)=O)c1ccccc1 [felbamate],inhibition of ASIC current amplitude,"[2]; 1 mM, pH drop from 7.4 to 6.0",~60%
"synthetic PcTX1: chemically synthesized PcTX1 peptide, used at 20 nM",effect on frequency of spontaneous clustered bursting activity,[3],reduced the frequency
same,"effect on acid-induced neuronal excitation (membrane depolarization, firing rate)",[4],largely and significantly reduced
